Test [1] has as its system tryptophan hydroxylase enzyme. Kind of test: Protein based tryptophan hydroxylase (Tph) assay, fluorescence signal. Particulars: for substrate quality for Tph: compared with Trp and AMT; for fluorescence signal immediately after adding compound: immediately after adding to reaction system containing tryptophan hydroxylase; for fluorescence signal peak value: peak of time course. Format: biochemical. As to the method:
(§1) Among the agents synthesized, 5-[^18F]F-AMT was first evaluated in vitro. In order to ensure that 5-[^18F]F-AMT could be used for IDO imaging, cell- and enzyme-based assays were performed. It was first tested whether 5-[^18F]F-AMT is a substrate for the IDO enzyme, and the result compared with that of the natural substrate Trp and a known IDO agent, α-methyl-L-tryptophan (AMT). […] Therefore, a cell-based assay was performed to further evaluate the agents. The uptake of 5-[^18F]F-AMT in IFNγ-treated cells was 3.474±0.6451% compared with 0.50±0.28% in control cells after 1 h incubation (p<0.001) (FIG. 7C). […] The serotonin pathway is a competitive metabolic route for Trp and its derivatives. In the first step Tph adds a hydroxyl group to position 5 of the indole ring. It was evaluated whether the introduction of fluorine at the 5-position would affect metabolism by Tph. As shown in) (FIG. 7B), immediately after adding L-Trp to the reaction system containing the tryptophan hydroxylase enzyme, the fluorescence signal increased from a baseline value of −0.266 to 40.885 and reached a peak value 58.350 at 26 min. Immediately after adding AMT to the reaction system, the fluorescence signal increased from a baseline value of −0.312 to 21.145 and reached a peak value of 36.607 at 34 min.

A further test addresses IDO1 enzyme (Homo sapiens, UniProt P14902). Kind of test: IDO1 enzyme assay (substrate test, absorbance at 490 nm). Format: biochemical. Particulars: for substrate to IDO1 enzyme: FIG. 7A; for absorbance at 490 nm: reaction containing the compound, results from 3 independent assays, control reaction had no absorbance. On the procedure: (§2) (D) Decay-corrected whole-body small PET images of B16F10 melanoma after 30 min injection of 5-[^18]F-AMT.
as §1

In the next test the test system is B16F10 melanoma. Kind of test: Small animal PET imaging of B16F10 melanoma tumor xenograft mouse model. Format: in vivo. Particulars: 200 μCi injected, image at 30 min. As to the method: as §2
FIGS. 8A-8B show (A) decay-corrected whole-body small PET images of B16F10 melanoma 0.5 h, 1.4 h, and 20 h after injection of ^124I-AMT; (B) decay-corrected whole-body small PET images of B16F10 melanoma 50 min after injection of ^18F—N-Me-Trp.
A tumor xenograft mouse model was produced with a B16F10 melanoma. 200 μCi of 5-^18F-AMT was injected and a PET image was obtained at 30 min. (FIG. 7D).
To test the effectiveness of therapeutic compounds of the invention, a tumor […] xenograft mouse model was produced with a B16F10 melanoma. 1 (FIG. 8A) or ^18F—N-Me-Trp (FIG. 8B) were injected in the tail vein and PET images obtained.

Another test has as its system HeLa cells. Kind of test: Cell uptake of tracer in HeLa cells with or without IFNγ treatment and NLG919. Format: cell-based. As to the method: as §2, §1

Sequence of IDO1 enzyme (P14902 whole entry, species assumed): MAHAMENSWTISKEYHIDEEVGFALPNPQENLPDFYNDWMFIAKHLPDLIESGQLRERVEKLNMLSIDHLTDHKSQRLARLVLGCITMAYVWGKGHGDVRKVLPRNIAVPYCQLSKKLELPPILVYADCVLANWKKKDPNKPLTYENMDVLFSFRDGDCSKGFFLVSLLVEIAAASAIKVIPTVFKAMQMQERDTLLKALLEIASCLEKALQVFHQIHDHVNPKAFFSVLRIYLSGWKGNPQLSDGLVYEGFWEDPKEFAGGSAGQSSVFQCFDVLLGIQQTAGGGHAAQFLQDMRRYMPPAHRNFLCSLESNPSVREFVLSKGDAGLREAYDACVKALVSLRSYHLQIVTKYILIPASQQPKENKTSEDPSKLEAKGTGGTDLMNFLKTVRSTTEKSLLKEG

With `CC(N)(Cc1c[nH]c2ccc(F)cc12)C(=O)O` (stereo not shown) [5-F-AMT], in test [1], the “time at which peak fluorescence was reached” value (shortened to “time”) amounted to 25 min, the “substrate quality for Tph” value is “not a good substrate”, the “fluorescence signal immediately after adding compound” value (“fluorescence signal immediately” below) is 5.635 and the “fluorescence signal peak value” worked out at 8.176. On IDO1 enzyme, the “substrate to IDO1 enzyme” value was “substrates” and the “absorbance at 490 nm” value is listed as 0.16±0.03.

`CC(N)(Cc1c[nH]c2ccc([18F])cc12)C(=O)O` (stereo not shown) [5-[^18F]F-AMT]: the “substrate quality for Tph” value in test [1] was “worse substrate”. Further, the “PET image of tumor” value in the test on B16F10 melanoma is “clearly shows the tumor”. The “increase of HeLa cells uptake after IFN-γ treatment” value in the test on HeLa cells (HeLa cells, IFN-γ treated vs untreated) came to 7 times. Moreover, the “uptake in IFNγ-treated cells incubated with NLG919” value in the test on HeLa cells (IFNγ-treated cells + IDO1 inhibitor NLG919) is recorded as 0.88±0.12%. For the same molecule, the “uptake in IFNγ-treated cells” value in the test on HeLa cells (IFNγ-treated cells, 1 h incubation) is recorded as 3.474±0.6451%. The “uptake in control cells” value with HeLa cells (control cells (no IFNγ), 1 h incubation) came to 0.50±0.28%.

As for `C[C@](N)(Cc1c[nH]c2ccccc12)C(=O)O` [AMT, α-methyl-L-tryptophan], in test [1], the “time” value amounted to 34 min, the “fluorescence signal immediately” value was 21.145 and the “fluorescence signal peak value” is recorded as 36.607. Also, at IDO1 enzyme, the “substrate to IDO1 enzyme” value is on record as “substrates” and the “absorbance at 490 nm” value came to 0.19±0.02.

Regarding `N[C@@H](Cc1c[nH]c2ccccc12)C(=O)O` [L-Trp, L-tryptophan], in test [1], the “time” value is 26 min, the “fluorescence signal immediately” value is on record as 40.885 and the “fluorescence signal peak value” is on record as 58.350. For the same molecule, on IDO1 enzyme, the “substrate to IDO1 enzyme” value is “substrates” and the “absorbance at 490 nm” value was 0.21±0.01.
